From patent publication US20230106506A1, “NOVEL PqsR INVERSE AGONISTS” (Helmholtz-Zentrum Fur Infektionsforschung GmbH, priority 2020, published 2023)

Tests used:
[1] = tested on: P. aeruginosa pyocyanin production; assay: Pyocyanin assay; format: cell-based, P. aeruginosa strain PA14; conditions: Pseudomonas aeruginosa, PA14, 16 h, read-out: IC50-value towards pyocyanin production
Procedure: Inhibition of P. aeruginosa pyocyanin production by compounds was determined photometrically as described before. In short, an overnight culture of PA14 in PPGAS medium was washed, diluted in medium to a start OD600 of 0.02, and incubated for 16 h (37° C., 200 rpm, relative humidity 75%) in the presence of test compounds. Then, cultures were extracted with chloroform and re-extracted with 0.2 M HCl. Protonated red colored pyocyanin was determined by measuring OD520 and normalizing to OD600.

[2] = Kinetic turbidimetric aqueous solubility; format: physicochemical; conditions: aqueous buffer, kinetic from dmso stock; PBS buffer, final DMSO 2%, absorbance 620 nm; read-out: Kinetic Turbidimetric Aqueous Solubility at room temperature for 5 min
Procedure: Kinetic Turbidimetric Aqueous Solubility at room temperature for 5 min. […] Data was analyzed by fitting a four parameter sigmoidal function to the measured and normalized absorbances and AUC calculation providing access to Log S (decadic logarithm of the solubility).

[3] = Metabolic stability in mouse liver microsomes (MLM); format: in vitro ADME; conditions: 1 μM compound, 0.5 mg/mL MLM, 1 mM NADPH, 37° C., read-out: half-life (t1/2) towards MLM
Procedure: For the evaluation of phase I metabolic stability, the compound (1 μM) was incubated with 0.5 mg/mL MLM (Corning) and 1 mM NADPH at 37° C. for 0, 5, 10, 15 and 30 min. The metabolic stability of Verapamil, Diphenhydramine and Benzydamine (1 μM each) were determined in parallel to confirm the enzymatic activity of the MLM. The incubation was stopped by addition of 2 volumes of acetonitrile containing internal standard (1 μM Leucine Enkephaline). Samples were centrifuged (15 min, 3,500 rpm). Concentration of the remaining test compound at the different time points was analyzed by HPLC-MS/MS and used to determine half-life (t1/2).

Row | SMILES | IC50 [1] | solubility at 5 min [2] | half-life at 1 µM [3]
1 | CC(C)Oc1ccc(-c2ccc(CNc3cc(-c4cn[nH]c4)nc(C(F)(F)F)c3)cn2)cc1 [Compound 21, N-((6-(4-Isopropoxyphenyl)pyridin-3-yl)methyl)-2-(1H-pyrazol-4-yl)-6-(trifluoromethyl)pyridin-4-amine] | 101 to 200 nM | > 25 µM | > 100 min
2 | CC(C)Oc1ccc(-c2ccc(CNc3cc(-c4cn[nH]c4)nc(C(F)(F)F)c3)cn2)cc1Cl [Compound 23, N-((6-(3-Chloro-4-isopropoxyphenyl)pyridin-3-yl)methyl)-2-(1H-pyrazol-4-yl)-6-(trifluoromethyl)pyridin-4-amine] | 201 to 500 nM | > 25 µM | > 100 min
3 | CC(C)Oc1ccc(-c2ccc(CNc3cc(-c4cn[nH]c4)nc(C(F)(F)F)c3)nc2)cc1Cl [Compound 24, N-((5-(3-Chloro-4-isopropoxyphenyl)pyridin-2-yl)methyl)-2-(1H-pyrazol-4-yl)-6-(trifluoromethyl)pyridin-4-amine] | 201 to 500 nM | > 10 µM | > 100 min
4 | CC(C)Oc1ccc(-c2cnc(CNc3cc(-c4cn[nH]c4)nc(C(F)(F)F)c3)cn2)cc1 [Compound 27, N-((5-(4-Isopropoxyphenyl)pyrazin-2-yl)methyl)-2-(1H-pyrazol-4-yl)-6-(trifluoromethyl)pyridin-4-amine] | 101 to 200 nM | > 25 µM | > 100 min
5 | CC(C)Oc1ccc(-c2ncc(CNc3cc(-c4cn[nH]c4)nc(C(F)(F)F)c3)cn2)cc1 [Compound 28, N-((2-(4-Isopropoxyphenyl)pyrimidin-5-yl)methyl)-2-(1H-pyrazol-4-yl)-6-(trifluoromethyl)pyridin-4-amine] | ≤ 100 nM | > 25 µM | 61 to 100 min
6 | CC(C)Oc1ccc(-c2ncc(CNc3cc(-n4ccnc4)nc(C(F)(F)F)c3)cn2)cc1Cl [Compound 30, N-((2-(3-Chloro-4-Isopropoxyphenyl)pyrimidin-5-yl)methyl)-2-(1H-imidazol-1-yl)-6-(trifluoromethyl)pyridin-4-amine] | 101 to 200 nM | > 10 µM | > 100 min
7 | CC(C)Oc1ccc(-c2ncc(CNc3cc(-c4cc[nH]n4)nc(C(F)(F)F)c3)cn2)cc1 [Compound 31, N-((2-(4-Isopropoxyphenyl)pyrimidin-5-yl)methyl)-2-(1H-pyrazol-3-yl)-6-(trifluoromethyl)pyridin-4-amine] | 201 to 500 nM | > 10 µM | > 100 min
8 | FC(F)(F)c1cc(NCc2cnc(-c3ccc(Cl)cc3)nc2)cc(-c2cn[nH]c2)n1 [Compound 33, N-((2-(4-Chlorophenyl)pyrimidin-5-yl)methyl)-2-(1H-pyrazol-4-yl)-6-(trifluoromethyl)pyridin-4-amine] | 201 to 500 nM | > 10 µM | 61 to 100 min
9 | Fc1cc(-c2ncc(CNc3cc(-c4cn[nH]c4)nc(C(F)(F)F)c3)cn2)ccc1Cl [Compound 34, N-((2-(4-Chloro-3-fluorophenyl)pyrimidin-5-yl)methyl)-2-(1H-pyrazol-4-yl)-6-(trifluoromethyl)pyridin-4-amine] | 201 to 500 nM | > 10 µM | > 100 min
10 | FC(F)(F)c1cc(NCc2cnc(-c3ccc(Cl)c(Cl)c3)nc2)cc(-c2cn[nH]c2)n1 [Compound 35, N-((2-(3,4-Dichlorophenyl)pyrimidin-5-yl)methyl)-2-(1H-pyrazol-4-yl)-6-(trifluoromethyl)pyridin-4-amine] | 101 to 200 nM | > 10 µM | > 100 min
11 | N#Cc1cc(-c2ncc(CNc3cc(-n4cncn4)nc(C(F)(F)F)c3)cn2)ccc1Cl [Compound 39, 5-(5-(((2-(1H-1,2,4-Triazol-1-yl)-6-(trifluoromethyl)pyridin-4-yl)amino)methyl)pyrimidin-2-yl)-2-chlorobenzonitrile] | 101 to 200 nM | > 10 µM | > 100 min
12 | CC(C)Oc1ccc(-c2cnc(CNc3cc(-c4cn[nH]c4)nc(C(F)(F)F)c3)nc2)cc1Cl [Compound 47, N-((5-(3-Chloro-4-isopropoxyphenyl)pyrimidin-2-yl)methyl)-2-(1H-pyrazol-4-yl)-6-(trifluoromethyl)pyridin-4-amine] | 201 to 500 nM | > 10 µM | 30 to 60 min
13 | CC(C)Oc1ccc(-c2ncc(CNc3cc(-c4cn[nH]c4)nc(C(F)(F)F)c3)cn2)cc1F [Compound 49, N-((2-(3-Fluoro-4-isopropoxyphenyl)pyrimidin-5-yl)methyl)-2-(1H-pyrazol-4-yl)-6-(trifluoromethyl)pyridin-4-amine] | 101 to 200 nM | > 10 µM | > 100 min
14 | Fc1ccccc1Oc1ccc(-c2ncc(CNc3cc(-c4cn[nH]c4)nc(C(F)(F)F)c3)cn2)cc1 [Compound 51, N-((2-(4-(2-Fluorophenoxy)phenyl)pyrimidin-5-yl)methyl)-2-(1H-pyrazol-4-yl)-6-(trifluoromethyl)pyridin-4-amine] | 101 to 200 nM | > 50 µM | > 100 min
15 | FC(F)(F)Oc1ccc(-c2ncc(CNc3cc(-c4cn[nH]c4)nc(C(F)(F)F)c3)cn2)cc1 [Compound 55, 2-(1H-Pyrazol-4-yl)-N-((2-(4-(trifluoromethoxy)phenyl)pyrimidin-5-yl)methyl)-6-(trifluoromethyl)pyridin-4-amine] | 201 to 500 nM | > 10 µM | > 100 min
16 | Nc1ccc(Oc2ccc(-c3ncc(CNc4cc(-c5cn[nH]c5)nc(C(F)(F)F)c4)cn3)cc2)cc1 [Compound 56, N-((2-(4-(4-Aminophenoxy)phenyl)pyrimidin-5-yl)methyl)-2-(1H-pyrazol-4-yl)-6-(trifluoromethyl)pyridin-4-amine] | 101 to 200 nM | > 10 µM | 61 to 100 min
17 | CC(C)Oc1ccc(-c2cnc(CNc3cc(-c4cn[nH]c4)nc(C(F)(F)F)c3)cn2)cc1Cl [Compound 57, N-((5-(3-Chloro-4-isopropoxyphenyl)pyrazin-2-yl)methyl)-2-(1H-pyrazol-4-yl)-6-(trifluoromethyl)pyridin-4-amine] | 101 to 200 nM | > 25 µM | > 100 min
18 | CC(C)Oc1ccc(-c2ccc(CNc3cc(-c4cn[nH]c4)nc(C(F)(F)F)c3)nn2)cc1Cl [Compound 58, N-((6-(3-Chloro-4-isopropoxyphenyl)pyridazin-3-yl)methyl)-2-(1H-pyrazol-4-yl)-6-(trifluoromethyl)pyridin-4-amine] | 101 to 200 nM | > 25 µM | > 100 min
19 | CC(C)Oc1ccc(-c2ncc(CNc3cc(-n4cncn4)nc(C(F)(F)F)c3)cn2)cc1Cl [Compound 60, N-((2-(3-Chloro-4-isopropoxyphenyl)pyrimidin-5-yl)methyl)-2-(1H-1,2,4-triazol-1-yl)-6-(trifluoromethyl)pyridin-4-amine] | 101 to 200 nM | > 10 µM | 61 to 100 min
20 | FC(F)(F)c1cc(NCc2nc3cc(Oc4ccccc4)ccc3[nH]2)cc(-n2ccnc2)n1 [Compound 61, 2-(1H-imidazol-1-yl)-N-((5-phenoxy-1H-benzo[d]imidazol-2-yl)methyl)-6-(trifluoromethyl)pyridin-4-amine] | 101 to 200 nM | > 10 µM | 30 to 60 min
21 | CC(C)Oc1ccc(-c2ncc(CNc3cc(-c4ccc(C#N)nc4)nc(C(F)(F)F)c3)s2)cc1 [Compound 68, 4-(((2-(4-Isopropoxyphenyl)thiazol-5-yl)methyl)amino)-6-(trifluoromethyl)-[2,3′-bipyridine]-6′-carbonitrile] | 201 to 500 nM | > 25 µM | > 100 min
